Measured values reported in patent US20040006236A1, “Diaminopropionic acid derivatives” (priority 1999, published 2004).
pIC50: −log10 of the molar value. Where a name gives a salt, the structure may show the parent alone. Read-outs that look alike come from different tables or passages of the source.

Columns and labels:
[1] = target: T1, LFA-1 binding to immobilized ICAM-1 (Homo sapiens, UniProt P05107+P20701); test: LFA-1/ICAM-1 protein-protein assay (solid-phase ELISA); details: read-out: LFA-1/ICAM-1 Protein-Protein Assay IC50
T1 construct: made in house; host or cells: transfected 293 cells (LFA-1)
Protocol: (a) LFA-1/ICAM-1 screening test: LFA-1/ICAM-1 antagonist activity, defined as the ability of compounds of the invention to block LFA-1 binding to immobilized ICAM-1, was quantitated using a solid-phase ELISA.
(§1) Typically, fusion protein consisting of the entire extracellular domain of human ICAM-1 and the Fc domain of human IgG (5dICAM-Ig) was coated onto 96-well microtiter plates (0.15 μg in 100 μL PBS) overnight at 4° C. The plates were then blocked with 150 μL of 1% BSA/1 mM MnCl2/0.14 M NaCl/20 mM HEPES, pH 7.2 for 1 h at 37° C. and washed 3 times (150 μL each) with Wash Buffer (50 mM Tris, pH 7.4/100 mM NaCl/1 mM MnCl2/0.05% Tween 20). Stock solutions (100 μM in 100% DMSO) of test compounds were diluted 50 fold with 150 μL of Binding Buffer (0.05% BSA/0.05% Tween 20/1 mM MnCl2/0.14 M NaCl/20 mM HEPES, pH 7.2) plus 10% DMSO. […] Fifty μL per well of each dilution was added to the ICAM-1 coated plates, followed by 50 μL per well of membrane-bound LFA-1 (280 ng/mL in Binding Buffer) derived from transfected 293 cells. The plates were shaken vigorously for 1 min (room temperature) and gently for 2 h (37° C.). After incubation, the plates were washed 3 times (150 μL each) with Wash Buffer. Mouse anti-human integrin β2 monoclonal antibody was added (100 μL/well, 1 μg/mL in Binding Buffer) and allowed to incubate for 1 h (37° C.) with gentle agitation. The plates were then washed 3 times with Wash Buffer. HRP-conjugated goat anti-mouse IgG (100 μL/well, 1:1500 dilution in Binding Buffer) was added to each well, followed by incubation for 1 h (37° C.), and concluded by three washes (150 μL each) with Wash Buffer. TMB solution (100 μL per well) was added for color development (10 min). The reaction was stopped by the addition of 100 μL of 1 M H3PO4 to each well. The plates were then read at 450 nm. The inhibitory activities of test compounds were determined by the IC50s.
as §1, with “LFA-1/ICAM-1 antagonist activity, defined as the ability to block LFA-1 binding to immobilized ICAM-1, was quantitated using a solid-phase ELISA. Typically,” for “Typically,”, “(0.05 %” for “(0.05%”, “nm.” for “nm. The inhibitory activities of test compounds were determined by the IC50s.”

[2] = system: T lymphocyte proliferation (C57BI/6 spleen cells with irradiated BALB/c spleen cells); test: Mixed lymphocyte reaction (MLR), one-way; assay type: cell-based, mice; details: read-out: MLR IC50
Text: Admixture of murine spleen cells from two different inbred strains of mice induces proliferation of T lymphocytes. The magnitude of T cell proliferation depends on the extent of disparity in the major histocompatibility antigens between the two strains. Splenic T lymphocytes from both strains proliferate due to alloantigen recognition, a process for which the interaction of ICAM-1 on antigen-presenting cells with LFA-1 on lymphocytes is necessary. The ability of antagonists to inhibit T lymphocyte proliferation following recognition of alloantigens was assessed in a one-way MLR, where cells from one strain were irradiated to permit measurement of the proliferative response of cells from the other strain. Spleen cells were washed three times in tissue culture medium (TCM; see below). […] One hundred microliters of serial dilutions of antagonists or TCM were added to the spleen cell mixture. The total volume in each well was 200 μL. TCM was RPMI1640 containing 10% heat-inactivated fetal bovine serum, […] L-glutamine, 100 Units/ml each of penicillin and streptomycin and 5×10^−5 M 2-mercaptoethanol. Dilutions of antagonists were prepared in TCM. Plates were incubated in 5% CO2 for 3 days. On the third day, 0.5 μCi of tritiated thymidine (10 μCi/mL) was added to all the wells. Cells were harvested 6 h later on a 96-well plate harvester and the amount of tritiated thymidine incorporated was assessed in a liquid scintillation counter.

T1 sequence (P20701 26-1170): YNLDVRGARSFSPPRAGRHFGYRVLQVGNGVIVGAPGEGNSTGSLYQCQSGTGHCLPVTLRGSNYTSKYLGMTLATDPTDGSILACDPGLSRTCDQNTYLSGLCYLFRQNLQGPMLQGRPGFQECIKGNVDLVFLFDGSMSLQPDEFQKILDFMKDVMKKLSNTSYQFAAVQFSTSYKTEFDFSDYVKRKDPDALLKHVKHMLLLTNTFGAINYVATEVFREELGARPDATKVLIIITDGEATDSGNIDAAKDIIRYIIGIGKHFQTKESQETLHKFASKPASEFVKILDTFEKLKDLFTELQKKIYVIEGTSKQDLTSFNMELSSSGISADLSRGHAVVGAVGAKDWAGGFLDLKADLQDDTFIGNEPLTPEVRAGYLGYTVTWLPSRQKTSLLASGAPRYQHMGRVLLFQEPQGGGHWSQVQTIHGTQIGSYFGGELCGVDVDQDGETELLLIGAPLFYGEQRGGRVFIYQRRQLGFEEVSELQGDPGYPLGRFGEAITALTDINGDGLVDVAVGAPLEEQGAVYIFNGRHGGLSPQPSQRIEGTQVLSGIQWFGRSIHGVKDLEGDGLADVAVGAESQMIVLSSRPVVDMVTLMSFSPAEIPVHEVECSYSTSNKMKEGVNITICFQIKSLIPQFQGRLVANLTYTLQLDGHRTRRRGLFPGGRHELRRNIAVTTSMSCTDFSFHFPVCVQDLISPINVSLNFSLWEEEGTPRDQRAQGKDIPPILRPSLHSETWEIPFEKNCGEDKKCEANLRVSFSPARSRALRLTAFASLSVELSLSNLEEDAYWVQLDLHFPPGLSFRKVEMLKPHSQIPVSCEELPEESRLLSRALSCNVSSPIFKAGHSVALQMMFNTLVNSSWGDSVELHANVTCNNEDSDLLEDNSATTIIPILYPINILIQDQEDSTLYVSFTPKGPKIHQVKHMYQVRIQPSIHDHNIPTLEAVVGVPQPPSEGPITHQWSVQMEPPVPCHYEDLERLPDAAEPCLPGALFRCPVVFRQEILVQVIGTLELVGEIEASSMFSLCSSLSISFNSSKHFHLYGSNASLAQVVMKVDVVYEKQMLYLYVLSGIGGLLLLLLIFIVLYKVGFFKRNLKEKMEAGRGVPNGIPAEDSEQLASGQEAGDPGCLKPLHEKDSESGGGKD
T1 sequence (P05107 23-769): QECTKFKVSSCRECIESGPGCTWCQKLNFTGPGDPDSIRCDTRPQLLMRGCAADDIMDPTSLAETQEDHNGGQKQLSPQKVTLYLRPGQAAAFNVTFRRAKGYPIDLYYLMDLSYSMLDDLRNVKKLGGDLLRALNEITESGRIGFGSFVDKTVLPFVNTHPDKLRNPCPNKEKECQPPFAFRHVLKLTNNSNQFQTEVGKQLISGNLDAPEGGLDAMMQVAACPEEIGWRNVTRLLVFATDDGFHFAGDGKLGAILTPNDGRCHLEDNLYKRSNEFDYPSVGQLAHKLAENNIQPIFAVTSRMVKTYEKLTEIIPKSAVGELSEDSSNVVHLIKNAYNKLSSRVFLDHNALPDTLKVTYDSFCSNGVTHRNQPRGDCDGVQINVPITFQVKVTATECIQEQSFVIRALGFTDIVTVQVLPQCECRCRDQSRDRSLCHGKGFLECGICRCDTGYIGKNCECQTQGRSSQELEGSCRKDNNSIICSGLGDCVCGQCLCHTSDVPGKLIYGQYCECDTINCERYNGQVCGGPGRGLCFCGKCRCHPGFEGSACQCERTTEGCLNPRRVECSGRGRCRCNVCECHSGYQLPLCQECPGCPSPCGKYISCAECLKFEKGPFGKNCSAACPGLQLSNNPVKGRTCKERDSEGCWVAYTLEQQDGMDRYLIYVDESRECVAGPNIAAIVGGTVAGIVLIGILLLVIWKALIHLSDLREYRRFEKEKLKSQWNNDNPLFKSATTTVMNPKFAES

pIC50 [1] | Compound | pIC50 ([2]; Mus musculus, T-lymphocyte) | pIC50 ([2]; sodium salt)
7.82 | COc1cc(C(=O)NC[C@H](NC(=O)c2ccc(C(=O)NCc3cccc(O)c3)cc2Cl)C(=O)O)nc2ccccc12 [Example 182] |  | 
7.38 | O=C(Cc1ccccc1)NC[C@H](NC(=O)c1c(Cl)cccc1Cl)C(=O)O [Example 204] |  | 
7.51 | O=C(Cc1ccc([N+](=O)[O-])cc1)NC[C@H](NC(=O)c1c(Cl)cccc1Cl)C(=O)O [Example 205] |  | 
7.64 | O=C1CC[C@@H](C(=O)NC[C@H](NC(=O)c2c(Cl)cccc2Cl)C(=O)O)O1 [Example 208] |  | 
7.44 | O=C(N[C@@H](CNC(=O)C1CC1)C(=O)O)c1c(Cl)cccc1Cl [Example 210] |  | 
7.44 | O=C(N[C@@H](CNC(=O)C1CCC1)C(=O)O)c1c(Cl)cccc1Cl [Example 212] |  | 
7.51 | O=C(N[C@@H](CNC(=O)C1CCCC1)C(=O)O)c1c(Cl)cccc1Cl [Example 213] |  | 
7.46 | O=C(N[C@@H](CNC(=O)C1CCCCC1)C(=O)O)c1c(Cl)cccc1Cl [Example 215] |  | 
7.48 | O=C(/C=C/c1cccs1)NC[C@H](NC(=O)c1c(Cl)cccc1Cl)C(=O)O [Example 218] |  | 
7.62 | COc1cccc(C(=O)NC[C@H](NC(=O)c2c(Cl)cccc2Cl)C(=O)O)c1 [Example 221] |  | 
7.51 | O=C(NC[C@H](NC(=O)c1c(Cl)cccc1Cl)C(=O)O)c1ccc2[nH]ccc2c1 [Example 225] |  | 
7.68 | Cc1cccc(C(=O)NC[C@H](NC(=O)c2c(Cl)cccc2Cl)C(=O)O)n1 [Example 227] | 5.07 | 
8.36 | N[C@H](Cc1ccc(O)cc1)C(=O)NC[C@H](NC(=O)c1ccc(C(=O)NCc2cccc(O)c2)cc1Cl)C(=O)O [Example 274] | 5.43 | 
8.66 | N[C@H](CC(=O)O)C(=O)NC[C@H](NC(=O)c1ccc(C(=O)NCc2cccc(O)c2)cc1Cl)C(=O)O [Example 275] | 6.27 | 
8.92 | Nc1cccc(C(=O)NC[C@H](NC(=O)c2ccc(C(=O)NCc3cccc(O)c3)cc2Cl)C(=O)O)c1 [Example 288] | 6.68 | 
8.27 | N[C@@H](CO)C(=O)NC[C@H](NC(=O)c1ccc(C(=O)NCc2cccc(O)c2)cc1Cl)C(=O)O [Example 292] | 5.44 | 
8.96 | O=C(NCc1cccc(O)c1)c1ccc(C(=O)N[C@@H](CNC(=O)c2ccccc2)C(=O)O)c(Cl)c1 [Example 304, 3-benzoylamino-N-[2-chloro-4-[[[(3-hydroxyphenyl)methyl]amino]carbonyl]benzoyl]-L-alanine, sodium salt] |  | 6.57
7.38 | CCCCS(=O)(=O)NC[C@H](NC(=O)c1ccc(C(=O)N[C@H](C)c2cccc3ccccc23)cc1Cl)C(=O)O [Example 361, 3-(1-butanesulfonylamino)-N-[2-chloro-4-[[[(1R)-1-(1-naphthalenyl)ethyl]amino]carbonyl]benzoyl]-L-alanine] | 4.67 | 
7.39 | Nc1cccc(C(=O)NCc2ccc(C(=O)N[C@@H](CNC(=O)c3ccccc3)C(=O)O)c(Cl)c2)c1 [Example 367] | 4.77 | 
7.40 | O=C(NCc1ccc(C(=O)N[C@@H](CNC(=O)c2ccccc2)C(=O)O)c(Cl)c1)c1cnc2ccccc2c1 [Example 370] | 4.96 | 
